# Assays:
# Assay in all cases: relative viability (nuclei count vs DMSO), 5 days (fraction); higher = more cells survive
# [1] = compound: CCN1CCN(c2ccc(Nc3cc(N(C)C(=O)Nc4c(Cl)c(OC)cc(OC)c4Cl)ncn3)cc2)CC1 [BGJ398] + CCNC(=O)c1noc(-c2cc(C(C)C)c(O)cc2O)c1-c1ccc(CN2CCOCC2)cc1 [Luminespib] (partner 0.01 µM)
# Method in brief: (§1)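 Lung cancer cell lines in 1536-well plates were dosed by pin tool the day after seeding, either with one drug alone or with a fixed anchor-drug dose plus five library-drug doses (not always all listed) in √10 steps. After 5 days, cells were fixed and their nuclei stained in one step (final 0.05% Triton X-100, 1% formaldehyde, 1 ug/ml Hoechst), then counted on 4× images. Relative viability is the nuclei count in treated wells divided by that in vehicle wells. Values are medians of duplicate plates.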
# [2] = compound: C1=CC2=NC=CN=C2C=C1/C=C/3\C(=O)NC(=O)S3 + Cc1nc(Nc2ncc(C(=O)Nc3c(C)cccc3Cl)s2)cc(N2CCN(CCO)CC2)n1 [Dasatinib] (partner 0.075 µM)
# Method in brief: as §1
# [3] = compound: CCN1CCN(c2ccc(Nc3cc(N(C)C(=O)Nc4c(Cl)c(OC)cc(OC)c4Cl)ncn3)cc2)CC1 [BGJ398] + Cc1nc(NC(=O)N2CCC[C@H]2C(N)=O)sc1-c1ccnc(C(C)(C)C(F)(F)F)c1 [Alpelisib] (partner 2 µM)
# Method in brief: as §1
# [4] = compound: CCN1CCN(c2ccc(Nc3cc(N(C)C(=O)Nc4c(Cl)c(OC)cc(OC)c4Cl)ncn3)cc2)CC1 [BGJ398] + Nc1ncn([C@H]2C[C@H](O)[C@@H](CO)O2)c(=O)n1 [Decitabine] (partner 2 µM)
# Method in brief: as §1
cell line,measurement,setting,value
UMC-11,relative viability,[1]; first compound 0.01 µM,1.02
same,relative viability,[1]; first compound 0.03162 µM,1.08
same,relative viability,[1]; first compound 0.1 µM,0.994
same,relative viability,[1]; first compound 0.3162 µM,0.984
same,relative viability,[1]; first compound 1 µM,1.01
same,relative viability,[2]; first compound 0.02 µM,0.467
same,relative viability,[2]; first compound 0.06325 µM,0.523
same,relative viability,[2]; first compound 0.2 µM,0.427
same,relative viability,[2]; first compound 0.6325 µM,0.489
same,relative viability,[2]; first compound 2 µM,0.519
same,relative viability,[3]; first compound 0.01 µM,0.999
same,relative viability,[3]; first compound 0.03162 µM,0.88
same,relative viability,[3]; first compound 0.1 µM,1.06
same,relative viability,[3]; first compound 0.3162 µM,0.983
same,relative viability,[3]; first compound 1 µM,0.907
same,relative viability,[4]; first compound 0.01 µM,0.504
same,relative viability,[4]; first compound 0.03162 µM,0.571
same,relative viability,[4]; first compound 0.1 µM,0.637
same,relative viability,[4]; first compound 0.3162 µM,0.652
same,relative viability,[4]; first compound 1 µM,0.365

# Reference: the supplement of paper PMC10307832
